Tests used:
[1] = Induction of chondrogenesis in human MSC assessed as incubated for 6 days by rhodamine B and Nile red staining based imaging analysis; format: functional; conditions: bmmsc
[2] = Inhibition of IL1-beta induced MMP3 expression levels in human chondrocytes assessed as MMP3 levels incubated for 2hrs followed by IL1-beta stimulation and measured after overnight incubation by LANCE assay; format: functional, cell-based; conditions: Chondrocyte
[3] = Effect on Wnt signaling pathway in human SW480 cells harbouring TCF/LEF luciferase reporter gene and SP5-Luc reporter gene incubated for 36 to 48 hrs by luminescence assay; format: cell-based
[4] = Induction of chondrogenesis in human MSC assessed as maximum activity at 10 nM incubated for 6 days by rhodamine B and Nile red staining based imaging analysis relative to control; format: functional; conditions: BMMSC, 144 h, time 6 day
[5] = target: Dual specificity tyrosine-phosphorylation-regulated kinase 1A (Homo sapiens, UniProt Q13627); test: Inhibition of recombinant DYRK1A (unknown origin) using Ser/Thr 18 peptide as substrate incubated for 1 hr in presence of ATP by FRET assay

SMILES	EC50 [1] [nM]	EC50 [2] [nM]	EC50 [3] [nM]	EC50 [5] [nM]	Emax at 0.01 µM [4] [%]
CC(C)Oc1ccc(NC(=O)c2n[nH]c3ccc(-c4cncc(CN5CC6CC(C5)O6)c4)cc23)cn1	30	0.2	61	–	75.7
CC(C)(C)CC(=O)Nc1cncc(-c2ccc3[nH]nc(-c4nc5ccncc5[nH]4)c3n2)c1	10	–	> 10000	21	54.1
CC(C)CC(=O)Nc1cncc(-c2cc3c(-c4cc5c(-c6cccs6)nccc5[nH]4)n[nH]c3cn2)c1	10	–	572	44	81.4
CC(C)Oc1ccc(NC(=O)c2n[nH]c3ccc(-c4cncc(CN5CCCCC5)c4)cc23)cn1	10	–	41	17	51.9
CN1CCN(c2cncc3[nH]c(-c4n[nH]c5ccc(-c6cncc(N)c6)nc45)nc23)CC1	30	–	> 10000	9	64.6
CC(C)Nc1cncc(-c2cnc3[nH]nc(-c4cc5c(-c6cccnc6)ccnc5[nH]4)c3c2)c1	10	–	> 10000	18	135
c1ccc2[nH]c(-c3n[nH]c4ncc(-c5cncc(CN6CCCC6)c5)cc34)cc2c1	10	–	1410	56	97.6
Cc1ccncc1-c1cnc2[nH]nc(-c3nc4c(-c5cc(F)cc(CNS(C)(=O)=O)c5)nccc4[nH]3)c2c1	10	–	124	84	92.8
Cc1ccc(-c2nccc3[nH]c(-c4n[nH]c5ccc(-c6cncc(N)c6)cc45)nc23)s1	2700	–	1.9	58	163
Cc1ncc(-c2cnc3[nH]nc(-c4cc5c(-c6ccncc6)cncc5[nH]4)c3c2)n1C	10	–	> 10000	28	194
CCNCc1cncc(-c2cnc3[nH]nc(-c4cc5c(-c6cccnc6)ccnc5[nH]4)c3c2)c1	10	–	> 10000	26	91.8
O=C(Nc1cncc(-c2ccc3[nH]nc(-c4nc5c(-c6ccc(Cl)s6)cncc5[nH]4)c3n2)c1)C1CCC1	30	–	800	72	67.9
CC(C)CC(=O)Nc1cncc(-c2cc3c(-c4nc5c(-c6cc(F)cc(OCCN7CCCC7)c6)cncc5[nH]4)n[nH]c3cn2)c1	–	3000	> 10000	3	20.3
Fc1ccc(-c2nccc3[nH]c(-c4n[nH]c5cnc(-c6cncc(CN7CCC(F)(F)C7)c6)cc45)cc23)cc1	10	–	291	10	61.2
CC(C)C(=O)Nc1cncc(-c2cc3c(-c4cc5c(-c6cc(F)cc(CNS(C)(=O)=O)c6)nccc5[nH]4)n[nH]c3cn2)c1	30	–	> 10000	27	79.5
O=C(Nc1cncc(-c2cc3c(-c4cc5cnccc5[nH]4)n[nH]c3cn2)c1)C1CCCCC1	30	–	1620	3	59.4
O=C(CC1CCNCC1)Nc1cncc(-c2ccc3[nH]nc(-c4cc5c(-c6ccoc6)ccnc5[nH]4)c3n2)c1	10	–	> 10000	64	102
CCCCC(=O)Nc1cncc(-c2ccc3[nH]nc(-c4nc5c(-c6cc(F)cc(NCCN(C)C)c6)ccnc5[nH]4)c3n2)c1	10	–	> 10000	18	71.4
c1csc(-c2nccc3[nH]c(-c4n[nH]c5cnc(-c6cncc(CN7CCCCC7)c6)cc45)cc23)c1	10	–	3680	31	59
c1cnc2[nH]c(-c3n[nH]c4ccc(-c5cncc(CN6CCCCC6)c5)cc34)cc2c1	10	–	1670	4	50.8
CCCCC(=O)Nc1cncc(-c2cc3c(-c4cc5c(-c6cccnc6)ccnc5[nH]4)n[nH]c3cn2)c1	10	–	> 10000	29	52.8
COc1cncc(C(=O)Nc2c[nH]nc2C(=O)Nc2ccc(OCCN3CCCC3)nc2)c1	10	–	22.3	12	106
O=C(Nc1cncc(-c2ccc3[nH]nc(-c4nc5c(-c6ccc(Cl)s6)nccc5[nH]4)c3n2)c1)C1CCC1	30	–	823	92	60.2
CCCCC(=O)Nc1cncc(-c2cc3c(-c4cc5c(-c6cc(F)cc(CNS(C)(=O)=O)c6)nccc5[nH]4)n[nH]c3cn2)c1	10	–	> 10000	62	111
Cc1cn(-c2nccc3[nH]c(-c4n[nH]c5ccc(-c6cncc(NC(=O)C(C)(C)C)c6)nc45)nc23)cn1	30	–	> 10000	39	69.7

Second part, led by results:

EC50 [1] [nM]	EC50 [2] [nM]	EC50 [3] [nM]	EC50 [5] [nM]	SMILES	Emax at 0.01 µM [4] [%]
30	–	1370	69	CN(C)Cc1cncc(-c2ccc3[nH]nc(-c4cc5c(-c6ccccc6F)cncc5[nH]4)c3n2)c1	50.6
10	–	> 10000	35	O=C(Nc1cncc(-c2ccc3[nH]nc(-c4cc5c(-c6cccnc6)cncc5[nH]4)c3c2)c1)c1ccccc1	68.5
10	–	435	44	CC(C)Nc1cncc(-c2cnc3[nH]nc(-c4cc5c(-c6ccccc6F)nccc5[nH]4)c3c2)c1	75.8
10	–	981	14	CC(C)Nc1cncc(-c2ccc3[nH]nc(-c4nc5c(-c6cccnc6)nccc5[nH]4)c3n2)c1	54.4
10	–	3760	29	CCNCc1cncc(-c2ccc3[nH]nc(-c4cc5cccnc5[nH]4)c3n2)c1	79.9
10	–	1300	53	CS(=O)(=O)NCc1cc(F)cc(-c2cncc3[nH]c(-c4n[nH]c5ccc(-c6cncc(NC(=O)C7CC7)c6)nc45)cc23)c1	82.9
10	–	> 10000	92	CCCCC(=O)Nc1cncc(-c2ccc3[nH]nc(-c4nc5c(-c6ccoc6)cncc5[nH]4)c3n2)c1	73.6
10	–	275	77	CC(C)C(=O)Nc1cncc(-c2cc3c(-c4cc5c(-c6cccnc6)cccc5[nH]4)n[nH]c3cn2)c1	201
10	–	66.3	20	Cc1ccc(-c2cccc3[nH]c(-c4n[nH]c5ccc(-c6cncc(N)c6)nc45)nc23)s1	87.9
10	–	1100	68	CS(=O)(=O)NCc1cc(F)cc(-c2nccc3[nH]c(-c4n[nH]c5ccc(-c6cncc(CN7CCCCC7)c6)nc45)cc23)c1	50.1
10	–	> 10000	24	c1cncc(-c2ccc3[nH]nc(-c4cc5cccnc5[nH]4)c3n2)c1	65.9
10	–	710	34	CN(C)c1cncc(-c2ccc3[nH]nc(-c4nc5c(-c6cccs6)cncc5[nH]4)c3n2)c1	65.6
10	–	> 10000	55	CCCCC(=O)Nc1cncc(-c2ccc3[nH]nc(-c4nc5c(-c6cc(F)cc(NCCN(C)C)c6)cncc5[nH]4)c3n2)c1	64.7
10	–	390	48	O=C(Nc1cncc(-c2cnc3[nH]nc(-c4cc5c(-c6ccccc6F)cncc5[nH]4)c3c2)c1)C1CC1	52.1
30	–	1070	40	Nc1cncc(-c2ccc3[nH]nc(-c4nc5c(-c6ccccc6F)cccc5[nH]4)c3n2)c1	81.8
10	–	1480	72	CC(C)CC(=O)Nc1cncc(-c2ccc3[nH]nc(-c4nc5c(-c6ccc(Cl)s6)cncc5[nH]4)c3n2)c1	60.6
10	–	180	13	CCC(=O)Nc1cncc(-c2cnc3[nH]nc(-c4cc5c(-c6cccnc6)cccc5[nH]4)c3c2)c1	671
10	–	395	11	CCNCc1cncc(-c2ccc3[nH]nc(-c4cc5ccccc5[nH]4)c3c2)c1	532
10	–	> 10000	100	CS(=O)(=O)NCc1cc(F)cc(-c2nccc3[nH]c(-c4n[nH]c5ccc(-c6cncc(NC(=O)Cc7ccccc7)c6)nc45)cc23)c1	110
10	–	3330	54	Clc1ccc(-c2cncc3[nH]c(-c4n[nH]c5ccc(-c6cncc(CN7CCCC7)c6)nc45)nc23)s1	62
10	–	1980	41	Fc1ccccc1-c1nccc2[nH]c(-c3n[nH]c4cnc(-c5cncc(CN6CCCC6)c5)cc34)cc12	69.4
10	–	> 10000	19	CC(C)Nc1cncc(-c2cc3c(-c4cc5c(-c6cccnc6)ccnc5[nH]4)n[nH]c3cn2)c1	77

— ChEMBL document CHEMBL4739717, “Methods of treating cartilage disorders through inhibition of clk and dyrk” (2020)
